From the NIST ThermoML archive (doi:10.1016/j.fluid.2018.08.017)
± gives the expanded uncertainty stated by the source.

Assay: wn = mass fraction of the nth substance listed
Conditions: 101 kPa, Liquid; for speed of sound: Single path-length method; for mass density: Vibrating tube method

CN1CCCC1=O [N-methylpyrrolidone] + CCCCn1cc[n+](C)c1.F[B-](F)(F)F
Conditions	mass density [kg/m3]	speed of sound [m/s]	viscosity [mPa·s]
293.15 K, w2 = 0	1034.1 ± 0.2	1565.7 ± 0.9	1.786 ± 0.049
293.15 K, w2 = 0.0986	1052.7 ± 0.2	1579.2 ± 1	2.568 ± 0.068
293.15 K, w2 = 0.2498	1077.9 ± 0.3	1582 ± 1.1	3.938 ± 0.1
293.15 K, w2 = 0.4971	1119.5 ± 0.5	1585.5 ± 1.4	9.374 ± 0.23
293.15 K, w2 = 0.7413	1160.6 ± 0.8	1580.1 ± 1.8	27.49 ± 0.7
298.15 K, w2 = 0	1029.7 ± 0.2	1546.1 ± 0.9	1.693 ± 0.047
298.15 K, w2 = 0.0986	1048.4 ± 0.2	1560.5 ± 1	2.33 ± 0.062
298.15 K, w2 = 0.2498	1073.7 ± 0.3	1564.5 ± 1.1	3.528 ± 0.091
298.15 K, w2 = 0.4971	1115.5 ± 0.5	1570.1 ± 1.4	8.144 ± 0.2
298.15 K, w2 = 0.7413	1156.8 ± 0.8	1566.6 ± 1.8	22.73 ± 0.57
303.15 K, w2 = 0	1025.2 ± 0.2	1526.7 ± 0.9	1.564 ± 0.044
303.15 K, w2 = 0.0986	1044 ± 0.2	1541.8 ± 1	2.129 ± 0.058
303.15 K, w2 = 0.2498	1069.5 ± 0.3	1546.8 ± 1.1	3.18 ± 0.083
303.15 K, w2 = 0.4971	1111.5 ± 0.5	1554.5 ± 1.4	7.116 ± 0.18
303.15 K, w2 = 0.7413	1153 ± 0.8	1552.8 ± 1.8	19.07 ± 0.48
308.15 K, w2 = 0	1020.8 ± 0.2	1507.5 ± 0.9	1.448 ± 0.042
308.15 K, w2 = 0.0986	1039.7 ± 0.2	1523.2 ± 1	1.953 ± 0.054
308.15 K, w2 = 0.2498	1065.4 ± 0.3	1529.4 ± 1.1	2.884 ± 0.076
308.15 K, w2 = 0.4971	1107.5 ± 0.5	1539 ± 1.4	6.257 ± 0.16
308.15 K, w2 = 0.7413	1149.2 ± 0.8	1539.2 ± 1.8	16.26 ± 0.41
313.15 K, w2 = 0	1016.3 ± 0.2	1488.3 ± 0.9	1.346 ± 0.039
313.15 K, w2 = 0.0986	1035.4 ± 0.2	1504.8 ± 1	1.798 ± 0.05
313.15 K, w2 = 0.2498	1061.2 ± 0.3	1512 ± 1.1	2.627 ± 0.07
313.15 K, w2 = 0.4971	1103.5 ± 0.5	1523.7 ± 1.4	5.544 ± 0.14
313.15 K, w2 = 0.7413	1145.4 ± 0.8	1525.6 ± 1.8	13.88 ± 0.35
318.15 K, w2 = 0	1011.9 ± 0.2	1469.2 ± 0.9	1.258 ± 0.037
318.15 K, w2 = 0.0986	1031 ± 0.2	1486.6 ± 1	1.662 ± 0.047
318.15 K, w2 = 0.2498	1057 ± 1	1494.8 ± 1.1	2.405 ± 0.065
318.15 K, w2 = 0.4971	1099.5 ± 0.5	1508.4 ± 1.4	4.948 ± 0.13
318.15 K, w2 = 0.7413	1141.7 ± 0.8	1512.2 ± 1.8	12.04 ± 0.3
323.15 K, w2 = 0	1007.4 ± 0.2	1450.4 ± 0.9	1.176 ± 0.035
323.15 K, w2 = 0.0986	1026.6 ± 0.2	1468.4 ± 1	1.542 ± 0.044
323.15 K, w2 = 0.2498	1052.8 ± 0.3	1478 ± 1.1	2.214 ± 0.06
323.15 K, w2 = 0.4971	1095.5 ± 0.5	1493.2 ± 1.4	4.444 ± 0.11
323.15 K, w2 = 0.7413	1137.9 ± 0.8	1498.9 ± 1.8	10.54 ± 0.27
328.15 K, w2 = 0	1002.9 ± 0.2	1431.4 ± 0.9	1.103 ± 0.033
328.15 K, w2 = 0.0986	1022.3 ± 0.2	1450.5 ± 1	1.435 ± 0.041
328.15 K, w2 = 0.2498	1048.6 ± 0.3	1461.1 ± 1.1	2.043 ± 0.056
328.15 K, w2 = 0.4971	1091.6 ± 0.4	1478.1 ± 1.4	4.015 ± 0.1
328.15 K, w2 = 0.7413	1134.2 ± 0.8	1485.6 ± 1.8	9.281 ± 0.24
333.15 K, w2 = 0	998.4 ± 0.2	1412.8 ± 0.9	1.037 ± 0.032
333.15 K, w2 = 0.0986	1018 ± 0.2	1432.6 ± 1	1.341 ± 0.039
333.15 K, w2 = 0.2498	1044.4 ± 0.3	1444.4 ± 1.1	1.892 ± 0.052
333.15 K, w2 = 0.4971	1087.6 ± 0.4	1463.2 ± 1.4	3.636 ± 0.095
333.15 K, w2 = 0.7413	1130.5 ± 0.7	1472.4 ± 1.8	8.224 ± 0.21
338.15 K, w2 = 0	993.9 ± 0.2	1394.4 ± 0.9	0.9769 ± 0.03
338.15 K, w2 = 0.0986	1013.6 ± 0.2	1414.6 ± 1	1.258 ± 0.037
338.15 K, w2 = 0.2498	1040.2 ± 0.3	1427.8 ± 1.1	1.76 ± 0.049
338.15 K, w2 = 0.4971	1083.6 ± 0.4	1448.1 ± 1.4	3.34 ± 0.088
338.15 K, w2 = 0.7413	1126.7 ± 0.7	1459.3 ± 1.8	7.318 ± 0.19
343.15 K, w2 = 0	989.4 ± 0.2	1376 ± 0.9	0.923 ± 0.029
343.15 K, w2 = 0.0986	1009.2 ± 0.2	1396.4 ± 1	1.182 ± 0.035
343.15 K, w2 = 0.2498	1036 ± 1	1411.3 ± 1.1	1.641 ± 0.046
343.15 K, w2 = 0.4971	1079.6 ± 0.4	1432.9 ± 1.4	3.064 ± 0.081
343.15 K, w2 = 0.7413	1123 ± 1	1445.8 ± 1.8	6.555 ± 0.17
